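48-hour exposure; five concentrations; linearly interpolated endpoints. GI50 = concentration required for 50% inhibition of growth. TGI is the concentration that stops growth completely.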

The test deals with MDA-MB-468 breast. Kind of test: growth of human tumour cells (NCI), 48 h.
As for `COc1cc(F)ccc1-c1ncnc(Nc2cccc(CS(C)(=N)=O)c2)n1` (centres undefined), the GI50 is 0.895 µM and the TGI was found to be 5.56 µM.
For `CCOC(=O)Nc1ccc(-c2nc(-c3cccc(OCCN4CCOCC4)c3)c(-c3ccnc(Br)c3)[nH]2)cc1`, the GI50 was 1.68 µM and the TGI stood at 3.66 µM.
In the case of `Cc1ccc(NC(=O)CC2CC2)cc1-c1ccc(C(=O)NCC2CC2)cc1`, the GI50 is greater than 15 µM and the TGI is greater than 25 µM.
With `[Cl][Hg][c]1cc[c]([Hg][Cl])o1`, the GI50 is 1.58 µM and the TGI was 3.32 µM.
With `O=C(Nc1ccncc1)C(=O)c1cn(S(=O)(=O)c2ccc(F)cc2)c2ccccc12`, the GI50 is 1.67 µM and the TGI was greater than 100 µM.
Take `CC(=O)O[C@@H]1C[C@H]2O[C@@H]3C=C(C)CC[C@]3(C)[C@]1(C)[C@]21CO1`: the GI50 is 4.92 µM and the TGI is 18.2 µM.
On to `Cc1cc2nc3c4cc(Cl)ccc4n(CC(=S)NCCN(C)C)c3nc2cc1C`, for which the GI50 is 1.95 µM and the TGI is 3.96 µM.
On the same counts, the results for `Cn1cc(-c2csc(-c3c[nH]c4ccc(F)cc34)n2)c2cnccc21` are 1.45 µM and 3.19 µM.
Regarding `COc1cc2c(c(OC)c1OC)-c1ccc(SC)c(=O)cc1C(NC=O)CC2` (centres undefined), the GI50 is less than 0.01 µM and the TGI was greater than 100 µM.
As for `COc1ccc(-c2nn(-c3ccc(NC(=O)c4ccc(Cl)c(Cl)c4)cc3)cc2-c2ccncc2)cc1Cl`, the GI50 was 3.15 µM and the TGI is greater than 50 µM.
As for `CC(=O)OC12C=CC(=O)N1c1ccccc1C(=O)O2` (centres undefined), the GI50 was greater than 100 µM and the TGI was greater than 100 µM.
Turning to `CN1C(=O)N(C)C2C1NN=c1s/c(=C\c3ccc(Cl)cc3Cl)c(=O)n12` (centres undefined), the GI50 was 0.183 µM and the TGI was found to be 33.4 µM.
With `CNCC#Cc1c(F)ccc2c1/C(=C/c1[nH]ccc1OC)C(=O)N2`, the GI50 was 0.279 µM and the TGI came out at 0.858 µM.
The corresponding values for `CCSc1ncnc2c1ncn2C1OC(CO)C(O)C1O` (centres undefined) are 0.583 µM and 17.6 µM.
On the same counts, the results for `Cc1ncc(C(=O)Nc2ccc(CN3CCN(C)CC3)c(C(F)(F)F)c2)cc1C#Cc1cnc(N)c2ccncc12` are 1.87 µM and 4.4 µM.
As to `CS(=O)(=O)CCNCc1nc(-c2ccc3ncnc(Nc4ccc(OCc5cccc(C(F)(F)F)c5)cc4)c3c2)cs1`, the GI50 is 1.55 µM and the TGI is greater than 20.9 µM.
On the same counts, the results for `COc1cc(Cn2c(-c3ccccc3)c(Cl)c3c2-c2oncc2CC3)cc(OC)c1` are 2.49 µM and 7.69 µM.
Turning to `CC(C)Oc1ccc2cc(-c3nn(CC4CCNCC4)c4ncnc(N)c34)ccc2c1`, the GI50 is 6.9 µM and the TGI stood at 21 µM.
Turning to `CCOC(=O)C(Cc1ccc(CCCC(=O)NCCC(=O)Nc2ccc3nc(C)sc3c2)cc1)C(=O)OCC`, the GI50 was 17.6 µM and the TGI came to 58.1 µM.
Turning to `COc1cc(-c2cc(-c3cc4c([nH]c5ccccc54)c(-c4cc(OC)c(OC)c(OC)c4)n3)cc(-c3ccccc3)n2)cc(OC)c1OC`, the GI50 is 1.73 µM and the TGI is 4.61 µM.
Regarding `CCCN1C(=O)N(CCC)C2C1NC(=S)N2/N=C/C=C/c1ccccc1OC` (centres undefined), the GI50 is 0.372 µM and the TGI was 17 µM.
`O=C(c1ccccc1)c1cc2ccccc2o1`: the GI50 was 48.2 µM and the TGI is greater than 100 µM.
`COc1ccc2[nH]cc(C3(c4c[nH]c5ccc(OC)cc45)C(=O)Nc4ccc(F)cc43)c2c1`: the GI50 was 2.07 µM and the TGI came out at 5.67 µM.
`COc1c(OC[C@H](O)CN2CCOCC2)ccc2c3n(c(=NC(=O)c4cccnc4C)nc12)CCN3`: the GI50 is 0.143 µM and the TGI was determined as 1.95 µM.
`COc1cccc2c1C(=O)c1c(O)c3c(c(O)c1C2=O)C[C@](O)(C(=O)CO)C[C@H]3O[C@@H]1C[C@@H](NC(=O)CCCCCN(C)C2(c3ccc(F)cc3)CC3CCC2C3)[C@H](O)[C@@H](C)O1` (some centres undefined): the GI50 is 5.87 µM and the TGI stood at 13.5 µM.
`O=C1OCC2=C1C(c1cccc(Br)c1)c1cc3c(cc1N2CCO)CCC3` (centres undefined): the GI50 is 0.0436 µM and the TGI amounted to 1.14 µM.
On to `C=CCCCCOc1ccccc1-c1cnc(OCCCCC=C)n1C`, for which the GI50 was 1.93 µM and the TGI is 7.86 µM.
Take `C[C@@H]1CC[C@@H]2[C@@H]1[C@H](OC(=O)/C=C/c1ccccc1)[C@]1(C3CCCCC3)C[C@@H](OC(=O)CO)[C@@]2(C)O1`: the GI50 was 3.33 µM and the TGI is 11.1 µM.
Turning to `Cn1cc(C2=C(c3cn(CCCCO)c4ccccc34)C(=O)NC2=O)c2ccccc21`, the GI50 was 12 µM and the TGI is greater than 25 µM.
For the molecule `C=C(C)[C@@H]1CC[C@]2(C)[C@H](CC=C3[C@@H]4CC(C)(C)CC[C@]4(C(N)=O)CC[C@]32C)[C@@]1(C)CCC#N`, the GI50 was 2.41 µM and the TGI is 8.42 µM.
With `Cc1nn(-c2ccc(Cl)cc2)c2nc3c(nc12)C(=O)c1ccccc1-3`, the GI50 was 58.5 µM and the TGI was greater than 100 µM.
Turning to `COc1ccc(C(=O)/C=C/c2cc(-c3cc(OC)c(OC)c(OC)c3)n[nH]2)cc1OC`, the GI50 was 0.759 µM and the TGI came to 2.18 µM.
On the same counts, the results for `C#C[C@]1(O)CCC2C3CCc4cc(O)ccc4C3CC[C@@]21C` (some centres undefined) are 1.84 µM and 6.2 µM.
On the same counts, the results for `O=C(CC1(O)C(=O)N(Cc2ccccc2)c2ccc(F)cc21)c1ccc(C(=O)NCC2CCC3(CC2)OOC2(CCCCC2)OO3)cc1` (centres undefined) are 1.35 µM and 3.39 µM.
Regarding `Nc1c(C(=O)Nc2ccncc2)sc2nc3c(cc12)CCCCCCCC3`, the GI50 is 0.966 µM and the TGI is 1.76 µM.
Regarding `O=C(N[C@@H](c1ccc(Cl)c(Cl)c1)C1CNC1)c1ccc2cnccc2c1`, the GI50 was 0.0617 µM and the TGI was determined as 0.638 µM.
`CC[C@H]1[C@@H]2C=C[C@@H]3[C@H]4C/C=C\C(=O)NCCC[C@@H]5NC(=O)/C(=C(O)/C=C/[C@@H]4C[C@@H]3[C@H]2C[C@H]1C)C5=O`: the GI50 is 2.02 µM and the TGI is 5.16 µM.

The values are drawn from PubChem BioAssay (NCI).
